# From patent publication US20220380801A1, “TRIPARTITE SYSTEMS FOR PROTEIN DIMERIZATION AND METHODS OF USE” (priority 2019, published 2022)
# What was measured:
# Type in all cases: cell-based, human
# [1] = tested on: HCT116 cells stably expressing the PRSIM-based kill switch; assay: Kill switch cell viability (phase contrast); settings: 100 nM simeprevir, wt kill switch
# Experimental: (§1) HCT116 and HT29 transduced cells were generated following the same protocol with exception of using McCoy's 5A medium+10% foetal bovine serum as growth medium, supplemented with 2 μg/ml puromycin for selection of transduced cells.
# (§2) HEK293, HCT116 or HT29 cells stably expressing the PRSIM-based kill switch fusion protein (SEQ ID NO: 223) or HEK293 cells stably expressing the PRSIM kill switch S196A mutant fusion protein (SEQ ID NO: 230) were plated onto collagen-coated 96-well plates and 24 h later treated with 100 nM simeprevir. Phase contrast images were acquired at various timepoints using 10× or 20× objectives on an Incucyte Zoom (EssenBioscience).
# [2] = tested on: HT29 cells stably expressing the PRSIM-based kill switch; assay: Kill switch cell viability (phase contrast); settings: 100 nM simeprevir, wt kill switch
# Experimental: as §1, §2
# [3] = tested on: iPSC single-cell clones with B2M-targeted kill switch; assay: Real-time cell analysis (RTCA) of kill switch activity in iPS cells; settings: 1 nM simeprevir
# Source text: A stable induced pluripotency stem cell (iPSC) line (a single clone (B-3/1F1) derived from the fibroblast cells of a healthy human donor from Research Specimen Collection Program of Astrazeneca) stably expressing the simeprevir-inducible kill switch was generated using CRISPR/Cas9 technology, using AAV-encoded DNA as template for targeted integration into the β2 microglobulin (B2M) locus.
# The donor construct (FIG. 33A) encoding the PRSIM-based kill switch (SEQ ID 223) was synthesized and purchased from GenScript, Inc. and was subcloned into an AAV shuttle plasmid backbone. The donor construct was packaged into adeno-associated viral (AAV) particles; briefly, the donor plasmid was co-transfected with two helper plasmids, pAd5Helper and pR2C6, encoding adenoviral components essential for AAV replication and AAV2 replication (rep)/AAV6 capsid (cap) proteins respectively. After 72 hours, the cells were collected and were disrupted by freeze-thawing. The cell lysate was digested with Benzonase (100 U/ml) for 1 hour at 37° C. and were centrifugated. The vector-containing supernatant was collected and applied to Iodixanol gradient followed by ultracentrifugation. After ultracentrifugation, the vector containing solution was collected and washed with 20 mL PBS in a centrifugal concentrator tube for 3 times. Finally, the solution was concentrated to 1 mL. […]
smiles,measurement,setting,value
COc1ccc2c(O[C@@H]3C[C@H]4C(=O)N[C@]5(C(=O)NS(=O)(=O)C6CC6)C[C@H]5/C=C\CCCCN(C)C(=O)[C@@H]4C3)cc(-c3nc(C(C)C)cs3)nc2c1C [simeprevir],cell death,[1],rapid cell death
same,cell death,[2],rapid cell death
same,cell proliferation index,[3]; clones encoding the kill switch,dramatic reduction in cell proliferation index after 5 hours
same,cell proliferation index,[3]; parental iPSC cells,continued to proliferate
